Experimental data taken from US20240279710A1, “FLUORESCENT PROBES” (TOHOKU TECHNO ARCH CO., LTD., priority 2021, published 2024).

Legend:
calpain = assay: Rat NMDA injury model, ocular fundus imaging; format: in vivo; settings: for staining of nerve cells with HMRG in ocular fundus: probe 18.3 μM, 20 minutes after administration; for number of HMRG-positive cells in ocular fundus: FIG. 16
Experimental: Black Brown-Norway rats were each subjected to general anesthesia with isoflurane. PBS or N-methyl-D-aspartate (NMDA) (10 mM, 2 μL) was administered into an eye of the rat. 6 Hours after that, the rat was anesthetized with a mixed liquid of ketamine and xylazine again, and Compound 19 (18.3 μM, 3 μL) was administered into the eye. Images of an ocular fundus were taken with F-10 (a confocal biomicroscope manufactured by Nidek Co., Ltd.) before the administration of Compound 19 and 20 minutes after the administration.

[1] = target: T1, recombinant human cathepsin B (Homo sapiens, UniProt P07858); assay: Fluorescence assay with cathepsin B; format: biochemical; settings: 10 μM probe, 880 ng/mL cathepsin B, 50 mM TRIS pH 7.4, 37° C., excitation 475 nm, fluorescence 500-550 nm; FIG. 37
T1 construct: purchased R&D Systems 953-CY
Experimental: The fluorescence assay of Compound 19 with time was performed. Specifically, 880 ng/mL of recombinant human cathepsin B (953-CY; R&D Systems, MN, USA) was added to a 50 mM TRIS buffer (pH: 7.4, 2 mM EGTA, 2 mM DTE) containing 10 μM of the synthesized fluorescent probe to perform an enzyme reaction at 37° C. The same operations as those described above except that cathepsin B was not added were performed as a negative control. The results of the measurement of a change in fluorescence intensity with time by cathepsin B are shown in FIG. 37 (excitation wavelength: 475 nm, fluorescence wavelength: from 500 nm to 550 nm).

[2] = target: T2, calpain-1 from human erythrocytes (Homo sapiens, UniProt P07384); assay: Reactivity with calpain-1: absorption/fluorescence spectra and HPLC; format: biochemical; settings: 5 μM probe, calpain-1 100 units
T2 construct: calpain-1 from human erythrocytes; purchased Merck Millipore 208713; host or cells: human erythrocytes (natural source)
T2 sequence (P07384 1-714): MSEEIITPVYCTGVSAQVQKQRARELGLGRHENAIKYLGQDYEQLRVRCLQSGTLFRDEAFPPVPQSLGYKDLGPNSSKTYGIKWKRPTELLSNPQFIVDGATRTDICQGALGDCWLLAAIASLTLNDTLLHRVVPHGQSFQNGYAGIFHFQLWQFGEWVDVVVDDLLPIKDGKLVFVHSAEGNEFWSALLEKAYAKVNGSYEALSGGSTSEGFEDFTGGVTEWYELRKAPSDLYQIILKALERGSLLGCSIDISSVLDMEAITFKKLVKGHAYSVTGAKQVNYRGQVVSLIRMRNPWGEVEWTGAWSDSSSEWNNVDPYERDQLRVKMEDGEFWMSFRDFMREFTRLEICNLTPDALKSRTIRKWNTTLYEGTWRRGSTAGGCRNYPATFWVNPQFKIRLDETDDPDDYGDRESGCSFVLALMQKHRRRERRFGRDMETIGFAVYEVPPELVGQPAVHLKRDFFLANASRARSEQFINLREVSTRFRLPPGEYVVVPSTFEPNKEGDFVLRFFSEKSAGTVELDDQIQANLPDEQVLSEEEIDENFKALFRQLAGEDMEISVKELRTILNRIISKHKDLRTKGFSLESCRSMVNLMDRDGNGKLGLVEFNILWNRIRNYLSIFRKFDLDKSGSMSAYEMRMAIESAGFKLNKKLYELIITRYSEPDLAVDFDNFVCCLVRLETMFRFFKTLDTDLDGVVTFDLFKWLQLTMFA
T2 sequence (P04632 1-268 partner): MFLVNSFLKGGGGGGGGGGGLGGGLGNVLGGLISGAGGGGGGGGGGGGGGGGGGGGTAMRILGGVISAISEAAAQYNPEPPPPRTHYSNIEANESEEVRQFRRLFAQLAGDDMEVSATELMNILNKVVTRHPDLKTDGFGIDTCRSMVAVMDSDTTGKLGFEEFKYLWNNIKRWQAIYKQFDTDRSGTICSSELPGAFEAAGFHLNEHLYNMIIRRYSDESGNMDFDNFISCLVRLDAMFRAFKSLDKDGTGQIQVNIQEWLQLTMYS
Experimental: Calpain-1 was caused to act on Compound 19, and changes in absorption spectrum and fluorescence spectrum thereof were measured. Specifically, a solution (0.5 mM) of Compound 19 in DMSO and calpain-1 (100 units) (calpain-1 from human erythrocytes, Cat. No. 208713, Merck Millipore, the same holds true for the following) were added to a 50 mM TRIS buffer (pH: 7.4, 5 mM CaCl2, 100 mM NaCl, 1 mM EGTA) to produce 2 mL of a reaction solution (final probe concentration: 5 μM). An enzyme reaction was performed at 37° C. The fluorescence spectrum of the reaction solution was measured at an excitation wavelength of 490 nm. In addition, the reaction solution was analyzed by HPLC chromatography. Compound 19 to which calpain-1 was not added (final concentration: 5 μM) was used as a control.

COCC(=O)N[C@@H](CC(C)C)C(=O)N[C@@H](CCSC)C(=O)Nc1ccc2c(c1)Oc1cc(N)ccc1C21OCc2ccccc21 (stereo partly shown) [Compound 19]
staining of nerve cells with HMRG in ocular fundus (calpain; rats administered NMDA (10 mM, 2 μL), 3 μL into the eye 6 hours later): many of the nerve cells were clearly stained | number of HMRG-positive cells in ocular fundus (calpain; rats administered NMDA): significant increase | number of HMRG-positive cells in ocular fundus (calpain; rats administered PBS): extremely small | staining of nerve cells with HMRG in ocular fundus (calpain; rats administered PBS, 3 μL into the eye): substantially no nerve cells are stained | change in fluorescence intensity with time by cathepsin B [1]: functioned as a fluorescent probe for cathepsin B | changes in absorption spectrum and fluorescence spectrum by addition of calpain-1 ([2]; 50 mM TRIS pH 7.4, 5 mM CaCl2, 37° C., excitation 490 nm): increases in absorbance and fluorescence intensity | change in HPLC chromatogram by addition of calpain-1 (reaction product) ([2]; 37° C.): produced HMRG serving as a fluorescent substance
